According to US20250144067A1, “PERSONALIZED STARVATION THERAPY FOR CANCER” (Faeth Therapeutics, Inc., priority 2021, published 2025):
Where a name gives a salt, the structure may show the parent alone. Read-outs that look alike come from different tables or passages of the source.

Assays:
[1] = tested on: NCI-H292 lung cancer cells; assay: FDA drug screening, complete media vs cholesterol-free media without statin (TABLE 1); type: cell-based, human
[2] = tested on: NCI-H292 lung cancer cells; assay: FDA drug screening, complete media vs cholesterol-free media with simvastatin (TABLE 2); type: cell-based, human
[3] = Complete minus Cholesterol-free, greater than 0 enhanced anti-cancer activity, about 0 neutral, below 0 antagonist
[4] = NCI-H292 cells, FDA drug library screen, cholesterol-free media without statin
[5] = NCI-H292 cells, FDA drug library screen, complete media
[6] = NCI-H292 cells, FDA library drug in cholesterol-free media with simvastatin 0.04 μM
[7] = NCI-H292 cells, FDA library drug in complete media
[8] = complete media vs cholesterol-free media + simvastatin (0.04 μM), >0 enhanced anti-cancer activity, about 0 neutral, <0 antagonist
[9] = NCI-H292 cells, cholesterol-free media without statin
[10] = complete vs cholesterol-free media, greater than 0 enhanced anti-cancer activity, about 0 neutral, below 0 antagonists
[11] = NCI-H292 cells, cholesterol-free media with simvastatin 0.04 μM, cell growth value in FDA drug screen
[12] = NCI-H292 cells, complete media, cell growth value in FDA drug screen
[13] = complete media minus cholesterol-free media + simvastatin, >0 enhanced anti-cancer activity, about 0 neutral, <0 antagonist
[14] = Complete minus Cholesterol-free, greater than 0 enhanced anti-cancer activity, about 0 neutral, below 0 antagonists
[15] = NCI-H292 cells in cholesterol-free media without statin
[16] = NCI-H292 cells in complete media
[17] = NCI-H292 cells, FDA drug library screen, cholesterol-free media with simvastatin 0.04 μM
[18] = NCI-H292 cells, cholesterol-free media without statin, FDA drug library screen
[19] = NCI-H292 cells, complete media, FDA drug library screen
[20] = complete media vs cholesterol-free media + simvastatin (0.04 μM), […]
[21] = Complete minus Cholesterol-free, >0 enhanced anti-cancer activity, about 0 neutral, <0 antagonist
[22] = NCI-H292 cells, cholesterol-free media with simvastatin 0.04 μM, FDA drug library screen (TABLE 2)
[23] = NCI-H292 cells, complete media, FDA drug library screen (TABLE 2)
[24] = complete media minus cholesterol-free media + simvastatin (0.04 μM), >0 enhanced anti-cancer activity, about 0 neutral, <0 antagonist
[25] = NCI-H292 cells, drug in cholesterol-free media with simvastatin 0.04 μM
[26] = NCI-H292 cells, drug in complete media
[27] = complete vs cholesterol-free media, >0 enhanced anti-cancer activity, about 0 neutral, <0 antagonist

For `CO[C@H]1C[C@@H]2CC[C@@H](C)[C@@](O)(O2)C(=O)C(=O)N2CCCC[C@H]2C(=O)O[C@H]([C@H](C)C[C@@H]2CC[C@@H](O)[C@H](OC)C2)CC(=O)[C@H](C)/C=C(\C)[C@@H](O)[C@@H](OC)C(=O)[C@H](C)C[C@H](C)/C=C/C=C/C=C/1C` [Rapamycin], the Difference [1, 3] was −0.13, the Cholesterol-free [1, 4] was 0.3515 and the Complete [1, 5] was 0.2187. For the same molecule, the “Cholesterol-free media + simvastatin (0.04 μM)” value [2, 6] was 1.159, the “Complete Media” value [2, 7] was 0.8704 and the Difference [2, 8] was −0.29.

`COC(=O)[C@H]1[C@H]2C[C@H]3c4[nH]c5ccccc5c4CCN3C[C@H]2CC[C@@H]1O` [Rauwolscine (hydrochloride)] gave a Cholesterol-free [1, 9] of 1.377, a Complete ([1]; NCI-H292 cells, complete media) of 0.9629 and a Difference [1, 10] of −0.41. For the same molecule, the “Cholesterol-free media + simvastatin (0.04 μM)” value [2, 11] was 0.7455, the “Complete Media” value [2, 12] was 0.837 and the Difference [2, 13] was 0.09.

`O=C(NC(Cc1cc(=O)[nH]c2ccccc12)C(=O)O)c1ccc(Cl)cc1` (stereo not drawn) [Rebamipide] gave a Difference [1, 14] of −0.60, a Cholesterol-free [1, 15] of 1.735 and a Complete [1, 16] of 1.132. For the same molecule, the “Cholesterol-free media + simvastatin (0.04 μM)” value [2, 17] was 1.344, the “Complete Media” value [2, 5] was 1.19 and the Difference [2, 8] was −0.15.

With `CCOc1ccccc1OC(c1ccccc1)C1CNCCO1.CS(=O)(=O)O` (stereo not drawn) [Reboxetine (mesylate)] the Cholesterol-free [1, 18] was 1.105, the Complete [1, 19] was 1.321 and the Difference ([1]; complete vs cholesterol-free media, […]) was 0.22. The “Cholesterol-free media + simvastatin (0.04 μM)” value [2, 17] was 0.8624, the “Complete Media” value [2, 5] was 0.7048 and the Difference [2, 20] was −0.16.

With `CNC(=O)c1cnn(-c2nc(N)c3ncn([C@@H]4O[C@H](CO)[C@@H](O)[C@H]4O)c3n2)c1` [Regadenoson] the Difference ([1]; Complete minus Cholesterol-free, […]) was −0.21, the Cholesterol-free [1, 9] was 1.426 and the Complete ([1]; NCI-H292 cells, complete media) was 1.216. For the same molecule, the “Cholesterol-free media + simvastatin (0.04 μM)” value [2, 6] was 1.362, the “Complete Media” value [2, 7] was 1.055 and the Difference [2, 20] was −0.31.

`CNC(=O)c1cc(Oc2ccc(NC(=O)Nc3ccc(Cl)c(C(F)(F)F)c3)c(F)c2)ccn1` [Regorafenib (Hydrochloride)] gave a Difference [1, 21] of 0.04, a Cholesterol-free [1, 18] of 0.8297 and a Complete [1, 19] of 0.8736. The “Cholesterol-free media + simvastatin (0.04 μM)” value [2, 22] was 0.9433, the “Complete Media” value [2, 23] was 0.9026 and the Difference [2, 24] was −0.04.

For `CNC(=O)c1cc(Oc2ccc(NC(=O)Nc3ccc(Cl)c(C(F)(F)F)c3)c(F)c2)ccn1` [Regorafenib (monohydrate)], the Cholesterol-free [1, 9] was 1.026, the Complete ([1]; NCI-H292 cells, complete media) was 0.6282 and the Difference [1, 10] was −0.40. The “Cholesterol-free media + simvastatin (0.04 μM)” value [2, 6] was 1.311, the “Complete Media” value [2, 7] was 0.728 and the Difference [2, 8] was −0.58.

Molecule `CNC(=O)c1cc(Oc2ccc(NC(=O)Nc3ccc(Cl)c(C(F)(F)F)c3)c(F)c2)ccn1` [Regorafenib] has a Difference [1, 3] of −0.09, a Cholesterol-free [1, 4] of 0.6924 and a Complete [1, 5] of 0.601. The “Cholesterol-free media + simvastatin (0.04 μM)” value [2, 25] was 1.071, the “Complete Media” value [2, 26] was 0.8585 and the Difference [2, 8] was −0.21.

`NC(=O)c1ccn(-c2cnc(NC[C@]3(c4ncccc4F)C[C@H](F)C3)nc2)c1` [Reldesemtiv] showed a Difference [1, 21] of −0.25, a Cholesterol-free [1, 9] of 1.096 and a Complete ([1]; NCI-H292 cells, complete media) of 0.8441. For the same molecule, the “Cholesterol-free media + simvastatin (0.04 μM)” value [2, 25] was 1.122, the “Complete Media” value [2, 26] was 0.9357 and the Difference [2, 8] was −0.19.

With `O=C(NC1CCNCC1)[C@@H]1CC[C@@H]2CN1C(=O)N2OS(=O)(=O)O` [Relebactam] the Difference [1, 14] was −0.59, the Cholesterol-free [1, 15] was 1.438 and the Complete [1, 16] was 0.845. For the same molecule, the “Cholesterol-free media + simvastatin (0.04 μM)” value [2, 11] was 0.885, the “Complete Media” value [2, 12] was 0.9451 and the Difference [2, 13] was 0.06.

With `CONC(=O)Nc1ccc(-c2sc3c(c2CN(C)C)c(=O)n(-c2ccc(OC)nn2)c(=O)n3Cc2c(F)cccc2F)cc1` [Relugolix] the Difference [1, 14] was −0.64, the Complete [1, 16] was 0.978 and the “Cholesterol-free media + simvastatin (0.04 μM)” value [2, 6] was 1.344. The “Complete Media” value [2, 7] was 1.077 and the Difference [2, 8] was −0.27.

With `CCOc1cc(CC(=O)N[C@@H](CC(C)C)c2ccccc2N2CCCCC2)ccc1C(=O)O` [Repaglinide] the Difference [1, 3] was −0.08, the Cholesterol-free [1, 4] was 1.088 and the Complete [1, 5] was 1.008. The “Cholesterol-free media + simvastatin (0.04 μM)” value [2, 25] was 0.996, the “Complete Media” value [2, 26] was 0.8125 and the Difference [2, 8] was −0.18.

Work on `COC(=O)[C@H]1[C@H]2C[C@@H]3c4[nH]c5cc(OC)ccc5c4CCN3C[C@H]2C[C@@H](OC(=O)c2cc(OC)c(OC)c(OC)c2)[C@@H]1OC` [Reserpine (hydrochloride)] yielded a Cholesterol-free [1, 9] of 1.178, a Complete ([1]; NCI-H292 cells, complete media) of 0.8568 and a Difference [1, 10] of −0.32. The “Cholesterol-free media + simvastatin (0.04 μM)” value [2, 25] was 1.074, the “Complete Media” value [2, 26] was 0.834 and the Difference [2, 8] was −0.24.

In the case of `COC(=O)[C@H]1[C@H]2C[C@@H]3c4[nH]c5cc(OC)ccc5c4CCN3C[C@H]2C[C@@H](OC(=O)c2cc(OC)c(OC)c(OC)c2)[C@@H]1OC` [Reserpine], the Difference [1, 21] is reported as −0.28, the Cholesterol-free [1, 9] is reported as 1.042 and the Complete ([1]; NCI-H292 cells, complete media) is reported as 0.7591. The “Cholesterol-free media + simvastatin (0.04 μM)” value [2, 11] was 0.8906, the “Complete Media” value [2, 12] was 0.9102 and the Difference [2, 13] was 0.02.

With `Oc1ccc(C=Cc2cc(O)cc(O)c2)cc1` [Resveratrol] the Cholesterol-free [1, 18] was 1.037, the Difference [1, 27] was 0.13 and the “Cholesterol-free media + simvastatin (0.04 μM)” value [2, 17] was 0.7896. The “Complete Media” value [2, 5] was 0.6933 and the Difference [2, 8] was −0.10.

For `C=C[C@]1(C)C[C@@H](OC(=O)CS[C@@H]2C[C@H]3CC[C@@H](C2)N3C)[C@]2(C)[C@H](C)CC[C@]3(CCC(=O)[C@H]32)[C@@H](C)[C@@H]1O` [Retapamulin], the Difference [1, 3] was −0.18, the Cholesterol-free [1, 4] was 1.002 and the Complete [1, 5] was 0.8221. For the same molecule, the “Cholesterol-free media + simvastatin (0.04 μM)” value [2, 22] was 1.667, the “Complete Media” value [2, 23] was 1.638 and the Difference [2, 24] was −0.03.

Molecule `CC1=C(/C=C/C(C)=C/C=C/C(C)=C/C(=O)O)C(C)(C)CCC1` [Retinoic acid] has a Difference [1, 14] of −0.66, a Cholesterol-free [1, 15] of 1.248 and a Complete [1, 16] of 0.5841. For the same molecule, the “Cholesterol-free media + simvastatin (0.04 μM)” value [2, 17] was 0.9194, the “Complete Media” value [2, 5] was 1.253 and the Difference [2, 13] was 0.33.

For `Cc1nc(Nc2ccc(F)cc2)nc(N2CCc3ccccc3C2C)c1C` (stereo not drawn) [Revaprazan (hydrochloride)], the Cholesterol-free [1, 18] was 1.192, the Complete [1, 19] was 1.344 and the Difference [1, 27] was 0.15. The “Cholesterol-free media + simvastatin (0.04 μM)” value [2, 22] was 1.005, the “Complete Media” value [2, 23] was 0.9357 and the Difference [2, 24] was −0.07.

With `CN(CCN1CCC(OC(=O)Nc2ccccc2-c2ccccc2)CC1)C(=O)c1ccc(CN2CCC(C(N)=O)CC2)cc1` [Revefenacin] the Complete [1] was 0.9642, the Difference [1] was −0.65 and the “Cholesterol-free media + simvastatin (0.04 μM)” value [2] was 1.184. For the same molecule, the “Complete Media” value [2] was 1.038 and the Difference [2] was −0.15.

`NC(=O)c1ncn([C@@H]2O[C@H](CO)[C@@H](O)[C@H]2O)n1` [Ribavirin] gave a Difference [1, 3] of −0.11, a Cholesterol-free [1, 4] of 0.8402 and a Complete [1, 5] of 0.7281. The “Cholesterol-free media + simvastatin (0.04 μM)” value [2, 25] was 0.9314, the “Complete Media” value [2, 26] was 0.6899 and the Difference [2, 8] was −0.24.

In the case of `CN(C)C(=O)c1cc2cnc(Nc3ccc(N4CCNCC4)cn3)nc2n1C1CCCC1` [Ribociclib hydrochloride], the Cholesterol-free [1, 18] is reported as 1.177, the Complete [1, 19] is reported as 1.5 and the Difference [1, 27] is reported as 0.32. For the same molecule, the “Cholesterol-free media + simvastatin (0.04 μM)” value [2, 17] was 0.9857, the “Complete Media” value [2, 5] was 0.8306 and the Difference [2, 8] was −0.16.

With `CN(C)C(=O)c1cc2cnc(Nc3ccc(N4CCNCC4)cn3)nc2n1C1CCCC1` [Ribociclib] the Difference [1, 21] was −0.30, the Cholesterol-free [1, 9] was 1.15 and the Complete ([1]; NCI-H292 cells, complete media) was 0.8537. For the same molecule, the “Cholesterol-free media + simvastatin (0.04 μM)” value [2, 11] was 0.6195, the “Complete Media” value [2, 12] was 0.7338 and the Difference [2, 13] was 0.11.
